Each structure is given as a SMILES string. Converted amounts (≈) assume the structure as drawn.

The test relates to rat corpus cavernosum tissue. In words: Relaxation of norepinephrine-precontracted isolated rat corpus cavernosum strips (organ bath). The test is classed as cell-based, Sprague-Dawley (SD) rats. The procedure: The extracts of this invention may be tested for their activity for alleviating or preventing symptoms erectile dysfunction by techniques known in the art. The test is similar to the endothelium-dependent vasorelaxatin test reported by Fitzpatrick et al., 1995. In general, in accordance with this protocol, plant extracts are tested for endothelium-dependent relaxation (EDR) by measuring the relaxation or contraction imparted by diluted samples to an appropriate tissue sample precontacted by norepinephrine to arrive at an EDR value that is the percentage of relaxation imparted. […] Experiments were performed on male, eight to twelve week old, 278.86±6.85 g Sprague-Dawley (SD) rats. Rats were housed in an animal care facility at the College of Medicine, University of Saskatchewan. Rats were anaesthetized with sodium pentobarbital (50 mg/kg) by intraperitoneal injection. The whole penis of one rat (shown at 10 in FIG. 3A) was gently dissected out and put into a Petri dish containing ice-cold Krebs' solution. The portion of the penis used for the experiments is shown generally at 12 in FIG. 3A. The penis was cleaned and the connective tissues were removed. The section 12 was prepared for testing as a proximal section (10 mm in length) of the corpus cavernosum 18, which was cut longitudinally into two pieces and the size of each piece was about 1×1×10 mm. […] The pH of this bath solution 23 was adjusted to 7.2. The corpus cavemosum strips 19 were tied with silk threads 24 at each end with one end immobilized at 26 on the inner wall of the organ bath chamber 20, and the other hooked to a transducer 28 (FT 03, Grass Ins. Co., Quincy). […] Strips 19 were contracted with 10 μM norepinephrine. After the plateau phase of contraction had been reached, the cumulative concentration-response relationships of BuSY and BuSY608 were tested. […] As a control and comparison compound, sildenafil ([…]®) was also used to test the penile tissue response (tissues prepared as above). […]

As for `CCCc1nn(C)c2c(=O)[nH]c(-c3cc(S(=O)(=O)N4CCN(C)CC4)ccc3OCC)nc12` [sildenafil], under “Rattus norvegicus, strips precontracted with 10 μM norepinephrine, cumulative concentration-response, n=6”, the EC50 (commonly the midpoint of the concentration-response curve) amounted to 11.4 µg/mL (≈ 24 µM). For the setting “induced by 200 μg/ml, norepinephrine-precontracted strips, n=6”, the maximal relaxation turned out to be 66.7±6.1%. For the same compound, the “concentration at which relaxation was initiated” value (norepinephrine-precontracted strips, cumulative concentration ladder) stood at 0.6 µg/mL.
